Reference: patent publication US20210161968A1, “USE OF MICRONEEDLE PATCH TO PROMOTE HAIR GROWTH” (North Carolina State University, priority 2018, published 2021)

Tested on: 7-week-old shaved C57BL/6J mouse model
Assay: Hair loss therapy (hair regrowth) in shaved mouse model
Format: in vivo
Procedure: Animal Studies: C57B/6J mice were used in this work and purchased from Jackson Laboratory (Bar Harbor, Me., United States of America). For in vivo therapy studies, the mice were shaved at postnatal day 50, and treated with an HMN patch loaded with exosomes and/or UK5099 at day 1 and day 5 after hair shave. The patch was pressed firmly for the first 5 seconds to penetrate through the epidermis and then pressed softly for an additional 1 minute to make the patch absorb liquid. The patch base was removed at 4 hours post-insertion into the skin. Topical administration of UK5099 (solvent formulation: ethanol/water/propylene glycol=5/3/2), and subcutaneous injection of exosomes were performed every two days, with the dosage same with that of the corresponding HMN patch. Shaved mice without any treatment were adopted as a control. The clinical agent minoxidil was used via topical administration in a concentration of 3%. The time profile of the hair phenotype transformation was obtained by real-time observation of the hair regrowth in mice. The judgement of the hair follicles in telogen, telogen-anagen transition, and anagen was performed according to a method previously described in the literature. See Oh et al., J. Investig. Dermatol. 2016, 136(1), 34-44. […]

N#CC(=Cc1cn(-c2ccccc2)c2ccccc12)C(=O)O [UK5099, 2-cyano-3-(1-phenyl-1H-indol-3-yl)-2-propenoic acid]
time for HFSCs to enter into anagen (pigmentation and hair regrowth) (delivered via HMN patch, two rounds of administration (day 1 and day 5)): about 8 days | therapeutic effect reflected by the hair covered area (topical administration, seven treatments, compared with HMN administration): inferior therapeutic effect
